Measured values taken from patent US20140309265A1, “MACROCYCLIC COMPOUNDS FOR INHIBITION OF INHIBITORS OF APOPTOSIS” (Ensemble Therapeutics, priority 2011, published 2014).

What was measured:
[1] = biological target: T1, His-BIR3 (241-356, XIAP) (Homo sapiens, UniProt P98170); test: XIAP-BIR3/SMAC Homogeneous Time Resolved Fluorescence (HTRF) Assay; type: binding; conditions: Table 4
T1 construct: additions of His-BIR3 (241-356, XIAP), fluorescein labeled SMAC peptide

[2] = biological target: T2, His-BIR2-3 (125-356, C202A/C213G, XIAP) (Homo sapiens, UniProt P98170, C202A/C213G); test: XIAP-BIR2-3 Dimeric SMAC Peptide Homogeneous Time Resolved Fluorescence (HTRF) Assay; type: binding; conditions: XIAP BIR2-3, HTRF, Table 4
T2 construct: additions of His-BIR2-3 (125-356, C202A/C213G, XIAP), fluorescein labeled dimeric SMAC peptide
T2 sequence (P98170 125-356 C202A/C213G): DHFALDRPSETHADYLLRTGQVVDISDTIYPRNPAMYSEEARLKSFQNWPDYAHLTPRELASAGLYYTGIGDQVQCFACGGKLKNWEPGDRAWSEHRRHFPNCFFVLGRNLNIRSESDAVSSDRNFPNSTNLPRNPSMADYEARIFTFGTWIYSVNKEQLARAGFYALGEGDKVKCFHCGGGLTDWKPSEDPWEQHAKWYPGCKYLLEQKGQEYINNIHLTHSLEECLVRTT

T1 sequence (P98170 241-356): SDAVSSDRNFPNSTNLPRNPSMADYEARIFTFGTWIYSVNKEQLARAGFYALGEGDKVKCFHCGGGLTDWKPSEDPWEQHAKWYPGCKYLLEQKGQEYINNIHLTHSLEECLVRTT

IC50 [1]	IC50 [2]	SMILES
> 100 nM	> 10 nM	CN[C@@H](C)C(=O)N[C@H](C(=O)N1C[C@@H]2C[C@H]1C(=O)N[C@@H](Cc1ccc3ccccc3c1)C(=O)N[C@H](C(=O)O)Cc1ccc(cc1)OCc1cn(nn1)[C@H]1C[C@@H](C(=O)N[C@@H](Cc3ccc4ccccc4c3)C(=O)N[C@H](C(=O)OC)Cc3ccc(cc3)OCc3cn2nn3)N(C(=O)[C@@H](NC(=O)[C@H](C)NC)C(C)(C)C)C1)C(C)(C)C [Compound 1001]
10 to 100 nM	≤ 1 nM	CN[C@@H](C)C(=O)N[C@H](C(=O)N1C[C@@H]2C[C@H]1C(=O)N[C@@H](Cc1ccc3ccccc3c1)C(=O)N[C@H](C(=O)O)Cc1ccc(cc1)OCc1cn(nn1)[C@H]1C[C@@H](C(=O)N[C@@H](Cc3ccc4ccccc4c3)C(=O)N[C@H](C(=O)O)Cc3ccc(cc3)OCc3cn2nn3)N(C(=O)[C@@H](NC(=O)[C@H](C)NC)C23CC4CC(CC(C4)C2)C3)C1)C12CC3CC(CC(C3)C1)C2 [Compound 1008]
< 10 nM	1 to 10 nM	CN[C@@H](C)C(=O)N[C@H](C(=O)N1C[C@@H]2C[C@H]1C(=O)N[C@@H](Cc1ccc3ccccc3c1)C(=O)N[C@H](C(=O)O)Cc1ccc(cc1)OCc1cn(nn1)[C@H]1C[C@@H](C(=O)N[C@@H](Cc3ccc4ccccc4c3)C(=O)N[C@H](C(=O)O)Cc3ccc(cc3)OCc3cn2nn3)N(C(=O)[C@@H](NC(=O)[C@H](C)NC)C23CC4CC(CC(O)(C4)C2)C3)C1)C12CC3CC(CC(O)(C3)C1)C2 [Compound 1009]
< 10 nM	1 to 10 nM	CN[C@@H](C)C(=O)N[C@H](C(=O)N1C[C@@H]2C[C@H]1C(=O)N[C@@H](Cc1ccc3ccccc3c1)C(=O)N[C@H](C(=O)O)Cc1ccc(cc1)OCCCc1cn(nn1)[C@H]1C[C@@H](C(=O)N[C@@H](Cc3ccc4ccccc4c3)C(=O)N[C@H](C(=O)O)Cc3ccc(cc3)OCCCc3cn2nn3)N(C(=O)[C@@H](NC(=O)[C@H](C)NC)C(C)(C)C)C1)C(C)(C)C [Compound 1011]
< 10 nM	1 to 10 nM	CN[C@@H](C)C(=O)N[C@H](C(=O)N1C[C@@H]2C[C@H]1C(=O)N[C@@H](Cc1ccc3ccccc3c1)C(=O)N[C@H](C(=O)O)Cc1ccc(cc1)NC(=O)CCc1cn(nn1)[C@H]1C[C@@H](C(=O)N[C@@H](Cc3ccc4ccccc4c3)C(=O)N[C@H](C(=O)O)Cc3ccc(cc3)NC(=O)CCc3cn2nn3)N(C(=O)[C@@H](NC(=O)[C@H](C)NC)C(C)(C)C)C1)C(C)(C)C [Compound 1012]
< 10 nM	≤ 1 nM	CN[C@@H](C)C(=O)N[C@H](C(=O)N1C[C@@H]2C[C@H]1C(=O)N[C@@H](Cc1ccc3ccccc3c1)C(=O)N[C@H](C(=O)O)Cc1ccc(cc1)NC(=O)c1cn(nn1)[C@H]1C[C@@H](C(=O)N[C@@H](Cc3ccc4ccccc4c3)C(=O)N[C@H](C(=O)O)Cc3ccc(cc3)OCc3cn2nn3)N(C(=O)[C@@H](NC(=O)[C@H](C)NC)C(C)(C)C)C1)C(C)(C)C [Compound 1014]
10 to 100 nM	1 to 10 nM	CN[C@@H](C)C(=O)N[C@H](C(=O)N1C[C@@H]2C[C@H]1C(=O)N[C@@H](Cc1ccc3ccccc3c1)C(=O)N[C@H](C(=O)O)Cc1ccc(cc1)-c1cn(nn1)[C@H]1C[C@@H](C(=O)N[C@@H](Cc3ccc4ccccc4c3)C(=O)N[C@H](C(=O)O)Cc3ccc(cc3)OCc3cn2nn3)N(C(=O)[C@@H](NC(=O)[C@H](C)NC)C(C)(C)C)C1)C(C)(C)C [Compound 1015]
< 10 nM	≤ 1 nM	CN[C@@H](C)C(=O)N[C@H](C(=O)N1C[C@@H]2C[C@H]1C(=O)N[C@@H](Cc1ccc3ccccc3c1)C(=O)N[C@H](C(=O)O)Cc1ccc(cc1)OCc1cn(nn1)[C@H]1C[C@@H](C(=O)N[C@@H](Cc3ccc4ccccc4c3)C(=O)N[C@H](C(=O)O)Cc3ccc(cc3)NC(=O)CCc3cn2nn3)N(C(=O)[C@@H](NC(=O)[C@H](C)NC)C(C)(C)C)C1)C(C)(C)C [Compound 1016]
< 10 nM	≤ 1 nM	CN[C@@H](C)C(=O)N[C@H](C(=O)N1C[C@@H]2C[C@H]1C(=O)N[C@@H](Cc1ccc3ccccc3c1)C(=O)N[C@H](C(=O)O)Cc1ccc(cc1)OCc1cn(nn1)[C@H]1C[C@@H](C(=O)N[C@@H](Cc3ccc4ccccc4c3)C(=O)N[C@H](C(=O)O)Cc3ccc(cc3)OCCc3cn2nn3)N(C(=O)[C@@H](NC(=O)[C@H](C)NC)C(C)(C)C)C1)C(C)(C)C [Compound 1017]
< 10 nM	1 to 10 nM	CN[C@@H](C)C(=O)N[C@H](C(=O)N1C[C@@H]2C[C@H]1C(=O)N[C@@H](Cc1ccc3ccccc3c1)C(=O)N[C@H](C(=O)O)Cc1ccc(cc1)OCc1cn(nn1)[C@H]1C[C@@H](C(=O)N[C@@H](Cc3ccc4ccccc4c3)C(=O)N[C@H](C(=O)NCC(=O)O)Cc3ccc(cc3)OCc3cn2nn3)N(C(=O)[C@@H](NC(=O)[C@H](C)NC)C(C)(C)C)C1)C(C)(C)C [Compound 1018]
< 10 nM	1 to 10 nM	CN[C@@H](C)C(=O)N[C@H](C(=O)N1C[C@@H]2C[C@H]1C(=O)N[C@@H](Cc1ccc3ccccc3c1)C(=O)N[C@H](C(=O)O)Cc1ccc(cc1)OCc1cn(nn1)[C@H]1C[C@@H](C(=O)N[C@@H](Cc3ccc4ccccc4c3)C(=O)N[C@H](C(=O)NCCC(=O)O)Cc3ccc(cc3)OCc3cn2nn3)N(C(=O)[C@@H](NC(=O)[C@H](C)NC)C(C)(C)C)C1)C(C)(C)C [Compound 1019]
10 to 100 nM	1 to 10 nM	CN[C@@H](C)C(=O)N[C@H](C(=O)N1C[C@@H]2C[C@H]1C(=O)N[C@@H](Cc1ccc3ccccc3c1)C(=O)N[C@H](C(=O)O)Cc1ccc(cc1)OCc1cn(nn1)[C@H]1C[C@@H](C(=O)N[C@@H](Cc3ccc4ccccc4c3)C(=O)N[C@H](C(=O)N(C)CC(=O)O)Cc3ccc(cc3)OCc3cn2nn3)N(C(=O)[C@@H](NC(=O)[C@H](C)NC)C(C)(C)C)C1)C(C)(C)C [Compound 1020]
< 10 nM	1 to 10 nM	CN[C@@H](C)C(=O)N[C@H](C(=O)N1C[C@@H]2C[C@H]1C(=O)N[C@@H](Cc1ccc3ccccc3c1)C(=O)N[C@H](C(=O)O)Cc1ccc(cc1)OCc1cn(nn1)[C@H]1C[C@@H](C(=O)N[C@@H](Cc3ccc4ccccc4c3)C(=O)N[C@H](C(=O)N3CCC(C(=O)O)C3)Cc3ccc(cc3)OCc3cn2nn3)N(C(=O)[C@@H](NC(=O)[C@H](C)NC)C(C)(C)C)C1)C(C)(C)C (stereo partly drawn) [Compound 1021]
< 10 nM	1 to 10 nM	CN[C@@H](C)C(=O)N[C@H](C(=O)N1C[C@@H]2C[C@H]1C(=O)N[C@@H](Cc1ccc3ccccc3c1)C(=O)N[C@H](C(=O)O)Cc1ccc(cc1)OCc1cn(nn1)[C@H]1C[C@@H](C(=O)N[C@@H](Cc3ccc4ccccc4c3)C(=O)N[C@H](C(=O)NCc3ccc(-c4nnn[nH]4)cc3)Cc3ccc(cc3)OCc3cn2nn3)N(C(=O)[C@@H](NC(=O)[C@H](C)NC)C(C)(C)C)C1)C(C)(C)C [Compound 1023]
< 10 nM	1 to 10 nM	CN[C@@H](C)C(=O)N[C@H](C(=O)N1C[C@@H]2C[C@H]1C(=O)N[C@@H](Cc1ccc3ccccc3c1)C(=O)N[C@H](C(=O)O)Cc1ccc(cc1)OCc1cn(nn1)[C@H]1C[C@@H](C(=O)N[C@@H](Cc3ccc4ccccc4c3)C(=O)N[C@H](C(=O)N(C)C)Cc3ccc(cc3)OCc3cn2nn3)N(C(=O)[C@@H](NC(=O)[C@H](C)NC)C(C)(C)C)C1)C(C)(C)C [Compound 1024]
< 10 nM	1 to 10 nM	CN[C@@H](C)C(=O)N[C@H](C(=O)N1C[C@@H]2C[C@H]1C(=O)N[C@@H](Cc1ccc3ccccc3c1)C(=O)N[C@H](C(=O)O)Cc1ccc(cc1)OCc1cn(nn1)[C@H]1C[C@@H](C(=O)N[C@@H](Cc3ccc4ccccc4c3)C(=O)N[C@H](C(=O)NCc3cccc(-c4nnn[nH]4)c3)Cc3ccc(cc3)OCc3cn2nn3)N(C(=O)[C@@H](NC(=O)[C@H](C)NC)C(C)(C)C)C1)C(C)(C)C [Compound 1025]
10 to 100 nM	1 to 10 nM	CN[C@@H](C)C(=O)N[C@H](C(=O)N1C[C@@H]2C[C@H]1C(=O)N[C@@H](Cc1ccc3ccccc3c1)C(=O)N[C@H](C(=O)O)Cc1ccc(cc1)OCc1cn(nn1)[C@H]1C[C@@H](C(=O)N[C@@H](Cc3ccc4ccccc4c3)C(=O)N[C@H](C(=O)N3CC(C(=O)O)C3)Cc3ccc(cc3)OCc3cn2nn3)N(C(=O)[C@@H](NC(=O)[C@H](C)NC)C(C)(C)C)C1)C(C)(C)C [Compound 1026]
–	> 10 nM	CN[C@@H](C)C(=O)N[C@H](C(=O)N1CCN2CCn3cc(nn3)C[C@@H](C(=O)O)NC(=O)[C@H](Cc3ccc4ccccc4c3)NC(=O)[C@@H]3CN(CCN3C(=O)[C@@H](NC(=O)[C@H](C)NC)C(C)(C)C)CCn3cc(nn3)C[C@@H](C(=O)O)NC(=O)[C@H](Cc3ccc4ccccc4c3)NC(=O)[C@@H]1C2)C(C)(C)C [Compound 1050]

SMILES	IC50 [1]	IC50 [2]
CNC(C)C(=O)NC(C(=O)N1CC2CC1C(=O)NC(Cc1ccc3ccccc3c1)C(=O)NC(C(=O)O)Cc1ccc(cc1)OCc1cn(nn1)C1CC(C(=O)NC(Cc3ccc4ccccc4c3)C(=O)NC(C(=O)O)c3ccc(cc3)OCc3cn2nn3)N(C(=O)C(NC(=O)C(C)NC)C(C)(C)C)C1)C(C)(C)C (stereo not drawn) [Compound 1013]	< 10 nM	≤ 1 nM
CN[C@@H](C)C(=O)N[C@H](C(=O)N1C[C@@H]2C[C@H]1C(=O)N[C@@H](Cc1ccc3ccccc3c1)C(=O)N[C@H](C(=O)O)Cc1ccc(cc1)OCc1cn(nn1)[C@H]1C[C@@H](C(=O)N[C@@H](Cc3ccc4ccccc4c3)C(=O)N[C@H](C(=O)NCc3nnn[nH]3)Cc3ccc(cc3)OCc3cn2nn3)N(C(=O)[C@@H](NC(=O)[C@H](C)NC)C(C)(C)C)C1)C(C)(C)C [Compound 1022]	< 10 nM	1 to 10 nM
